Results: publication PMC7288058, “Modulating the Properties of Fe(III) Macrocyclic MRI Contrast Agents by Appending Sulfonate or Hydroxyl Groups” (Molecules, 2020)

Columns and labels:
Format in all cases: physicochemical
[1] = Aqueous solubility (observations); conditions: for aqueous solubility: words
[2] = Cyclic voltammetry, Fe(III)/Fe(II) electrode potential; conditions: for electrode potential (E1/2) vs. Ag/AgCl: 0.10 M potassium chloride
Description: Cyclic voltammetry experiments were carried out in aqueous solutions containing 0.10 M potassium chloride at acidic and neutral pH values with potassium ferricyanide salt in aqueous solution as a reference (Figure S8, Supplementary Materials). […] The electrode potential (E1/2) of Fe(L1)(OH2) at pH 3 was 227 mV vs. Ag/AgCl (515 mV vs. normal hydrogen electrode, NHE) and was −209 mV vs. Ag/AgCl (79 mV vs. NHE) at pH 7. […] At pH 3 the E1/2 was estimated as 264 mV vs. Ag/AgCl (552 mV vs. NHE), and, at pH 7, it was estimated as −618 mV vs. Ag/AgCl (−330 mV vs. NHE). For comparison, the E1/2 of Fe(L3)(OH2) at pH 3 was reported as 112 mV vs. Ag/AgCl (400 mV vs. NHE) and, at pH 7, the value was −588 mV vs. Ag/AgCl (−300 mV vs. NHE).
Cyclic voltammetry measurements were performed in 10.0-mL aqueous solutions containing 0.100 M […] as supporting electrolyte and 1.00 mM Fe(III) complexes. A standard three-electrode cell was used with a polished glassy carbon as the working electrode, a Pt wire as the auxiliary electrode, and an Ag/AgCl (1.00 mM) reference electrode. The samples were purged with extra pure N2 gas to remove the dissolved oxygen for each measurement. Current was measured with a 10-s prescan delay between −1.5 V and 1.5 V at a sweep rate of 100 and 500 mV/s, where 1.00 mM ferrocyanide was used as a standard solution. The redox potential of Fe(II)/(III) was calculated from the anodic (Epa) and cathodic (Epc) potentials, as EFe(II)/(III) = (Epa + Epc)/2 in reference to Ag/AgCl (1.00 mM), then converted to a value referenced to the normal hydrogen electrode (NHE).

[3] = 1-octanol/water partition coefficient (log P) by ICP-MS; conditions: 20 mM HEPES pH 7.4, 100 mM NaCl
Description: To compare the lipophilicity of the complexes, the 1-octanol/water partition coefficients (log P) were determined.
Fe(III) complex solutions (0.500 mM) were prepared in 1.00 mL of H2O with 20.0 mM HEPES buffer (pH 7.4) and 100.0 mM NaCl. 0.500 mL of Fe(III) complex solution and 0.500 mL of 1-octanol was prepared. The mixture was shaken for 24 h, then centrifuged at 13,000 rpm for 1 min. Then, the solution was allowed to stand for 1 h. Iron concentration in the aqueous layer before and after mixing with 1-octanol was determined by ICP-MS. […] (3) logP=log(Co/Cw).

Row | solubility ([1]; pH 6–7, concentration needed for 17O-NMR) | Structure (SMILES) | aqueous solubility [1] | electrode potential (E1/2) vs. Ag/AgCl ([2]; pH 3, aqueous) | electrode potential (E1/2) vs. NHE ([2]; pH 3, converted from Ag/AgCl) | electrode potential (E1/2) vs. Ag/AgCl ([2]; pH 7, aqueous) | electrode potential (E1/2) vs. NHE ([2]; pH 7, converted from Ag/AgCl) | Log P [3]
1 |  | C[C@H]([O-])CN1CCN(CCCS(=O)(=O)[O-])CCN(C[C@H](C)O)CC1.O.[Fe+3] [Fe(L1)(OH2)] | excellent aqueous solubility | 227 mV | 515 mV | −209 mV | 79 mV | −1.67
2 | < 10 mM | C[C@H]([O-])CN1CCN(C[C@H](C)O)CCN(C[C@H](C)O)CC1.[Fe+3] [Fe(L2)] | moderate solubility | ~264 mV | ~552 mV | ~−618 mV | ~−330 mV | −1.60 ± 0.1
